{"source": "paper PMC12494831", "about": "“Discovery of new pyridine 3-carboxylic acid-based pharmacophores as dual anti-inflammatory and anti-hyperglycemic agents” (Scientific Reports, 2025)", "key": {"[1]": {"experiment": "DPPH radical scavenging (517 nm)", "conditions": "for IC50: read-out: DPPH IC50±SD", "description": "(§1) The experimental method principle relies on the degradation of the purple color of the DPPH radical and the blue color reduction of the ABTS cation radical. This is due to consuming the electron or hydrogen radical from the antioxidant (A-H). Both assays were measured at 517 nm and 734 nm, respectively. The distinction of color changes illustrates the potential scavenging activity of the inhibitor molecules in terms of hydrogen-donating proficiency. From this, we can conclude the anti-oxidant efficacy.\nMethanolic DPPH solution (0.15 mM) was prepared, and 1.0 mL of DPPH solution was mixed with 3.0 mL of synthesized molecules at different concentrations (20 µM to 100 µM). The mixture was constantly swirled and stored RT for 30 min, followed by absorbance measurement at 517 nm."}, "[2]": {"experiment": "ABTS cation radical scavenging (734 nm)", "conditions": "for IC50: read-out: ABTS IC50±SD", "description": "as §1\nIn brief, 7.0 mM ABTS in H2O and 2.5 mM potassium persulfate (1:1) were shaken well to generate ABTS cation radicals and kept in the dark at RT for 15–20 h before it is used for the experiment. After, the radical was mixed with the synthesized molecules at different concentrations (20 µM to 100 µM). The resultant solution was measured for absorbance at 734 nm. Ascorbic acid is the positive control for this experiment.1 [drawing 1]"}, "human RBC": {"system": "human RBC", "experiment": "Anti-inflammatory activity: hypotonic solution-induced human RBC hemolysis (560 nm)", "format": "cell-based", "conditions": "for IC50: induced human RBC hemolysis, read-out: Inflammatory IC50±SD", "description": "All synthesized compounds are validated in human RBC (blood sample); the blood sample was collected from a healthy volunteer in an EDTA tube. The EDTA tube further proceeded with centrifugation at 3000 rpm for 30 min. A supernatant (which contains plasma and leucocytes) solution was isolated, and the obtained RBC (red blood cells) was further treated with Alsever’s reagent. Alsever’s reagent was prepared as follows: sodium citrate (0.8 g, 2.6 mmol), dextrose (2 g, 11.0 mmol), citric acid (0.050 g, […]), and sodium chloride (0.42 g, 7.0 mmol) were solubilized in 100 mL of distilled water. The above mixture was centrifuged for 30 min at 3000 rpm. Then, colloidal blood cells were separated, carefully transferred, and washed with 0.85% of the isosaline solution; this process continued until a clear solution appeared. Employing coagulated RBC and generated human erythrocyte hemolysis, the anti-inflammatory activity and potential of the synthesized entities were evaluated. The tested compounds are prepared at different concentrations for the inhibition activity of inflammation, along with 100 µL of a purified RBC sample utilized. All characterized samples were followed by adding 5.0 mL of trisodium phosphate (10 mM) and 5.0 mL of sodium chloride (5.0 mM) buffer solutions. After the addition of the above mixtures, the test samples are incubated for 15 min at room temperature with RBC and hypotonic mixtures. After incubation, the mixture was centrifuged at 3000 rpm for 15 min. The final supernatant liquid solution was measured at 560 nm using a UV-visible spectrophotometer.3 [drawing 3]"}}}
{"smiles": "O=C1O[C@H]([C@@H](O)CO)C(O)=C1O", "note": "[Ascorbic acid, reference compound]", "values": [{"measurement": "DPPH Inhibition %", "setting": "[1]; 20 µM", "value": 91, "unit": "%"}, {"measurement": "DPPH Inhibition %", "setting": "[1]; 40 µM", "value": 91.8, "unit": "%"}, {"measurement": "DPPH Inhibition %", "setting": "[1]; 60 µM", "value": 93.7, "unit": "%"}, {"measurement": "DPPH Inhibition %", "setting": "[1]; 80 µM", "value": 94.3, "unit": "%"}, {"measurement": "DPPH Inhibition %", "setting": "[1]; 100 µM", "value": 96.1, "unit": "%"}, {"measurement": "IC50", "setting": "[1]", "value": "11.81 ± 0.04", "unit": "µM"}, {"measurement": "ABTS Inhibition %", "setting": "[2]; 20 µM", "value": 90, "unit": "%"}, {"measurement": "ABTS Inhibition %", "setting": "[2]; 40 µM", "value": 93, "unit": "%"}, {"measurement": "ABTS Inhibition %", "setting": "[2]; 60 µM", "value": 95, "unit": "%"}, {"measurement": "ABTS Inhibition %", "setting": "[2]; 80 µM", "value": 96, "unit": "%"}, {"measurement": "ABTS Inhibition %", "setting": "[2]; 100 µM", "value": 96.5, "unit": "%"}, {"measurement": "IC50", "setting": "[2]", "value": "11.9 ± 0.01", "unit": "µM"}]}
{"smiles": "COC(=O)C=Cc1cc(OC)c(OC(=O)c2cccnc2)c(OC)c1", "note": "[Compound 2d, 2,6-dimethoxy-4-(3-methoxy-3-oxoprop-1-en-1-yl)phenyl nicotinate]", "values": [{"measurement": "DPPH Inhibition %", "setting": "[1]; 20 µM", "value": 36.2, "unit": "%"}, {"measurement": "DPPH Inhibition %", "setting": "[1]; 40 µM", "value": 56.3, "unit": "%"}, {"measurement": "DPPH Inhibition %", "setting": "[1]; 60 µM", "value": 80.5, "unit": "%"}, {"measurement": "DPPH Inhibition %", "setting": "[1]; 80 µM", "value": 87.4, "unit": "%"}, {"measurement": "DPPH Inhibition %", "setting": "[1]; 100 µM", "value": 88.3, "unit": "%"}, {"measurement": "IC50", "setting": "[1]", "value": "32.02 ± 0.26", "unit": "µM"}, {"measurement": "inhibition at 20 µM", "setting": "human RBC", "value": 59, "unit": "%"}, {"measurement": "inhibition at 40 µM", "setting": "human RBC", "value": 62, "unit": "%"}, {"measurement": "inhibition at 60 µM", "setting": "human RBC", "value": 65.4, "unit": "%"}, {"measurement": "inhibition at 80 µM", "setting": "human RBC", "value": 75.2, "unit": "%"}, {"measurement": "inhibition at 100 µM", "setting": "human RBC", "value": 84.4, "unit": "%"}, {"measurement": "IC50", "setting": "human RBC", "value": "20.2 ± 0.26", "unit": "µM"}, {"measurement": "ABTS Inhibition %", "setting": "[2]; 20 µM", "value": 56.9, "unit": "%"}, {"measurement": "ABTS Inhibition %", "setting": "[2]; 40 µM", "value": 59.6, "unit": "%"}, {"measurement": "ABTS Inhibition %", "setting": "[2]; 60 µM", "value": 62.5, "unit": "%"}, {"measurement": "ABTS Inhibition %", "setting": "[2]; 80 µM", "value": 62.6, "unit": "%"}, {"measurement": "ABTS Inhibition %", "setting": "[2]; 100 µM", "value": 63.2, "unit": "%"}, {"measurement": "IC50", "setting": "[2]", "value": "21.57 ± 0.11", "unit": "µM"}]}
{"smiles": "O=C(c1ccccc1)c1ccc2n1CCC2C(=O)O", "note": "(stereo not drawn) [Ketorolac, reference compound]", "values": [{"measurement": "inhibition at 20 µM", "setting": "human RBC", "value": 91, "unit": "%"}, {"measurement": "inhibition at 40 µM", "setting": "human RBC", "value": 92, "unit": "%"}, {"measurement": "inhibition at 60 µM", "setting": "human RBC", "value": 93, "unit": "%"}, {"measurement": "inhibition at 80 µM", "setting": "human RBC", "value": 93.5, "unit": "%"}, {"measurement": "inhibition at 100 µM", "setting": "human RBC", "value": 94, "unit": "%"}, {"measurement": "IC50", "setting": "human RBC", "value": "11.8 ± 0.17", "unit": "µM"}]}
